The record followed here is patent US20100093763A1, “PHENYL SUBSTITUTED THIENO[2,3-d]PYRIMIDINES AND THEIR USE AS ADENOSINE A2a RECEPTOR ANTAGONISTS” (priority 2008, published 2010).

Test [1] addresses T1, human adenosine A2a receptor (Homo sapiens, UniProt P29274).
T1 construct: expressed in transfected cells; host or cells: CHO-K1 cells with cAMP inducible beta-galactosidase reporter gene
Put plainly: Adenosine A2a Receptor Functional Assay (A2AGAL2). The following applies: CHO-K1 cells overexpressing human A2a receptor, cAMP inducible beta-galactosidase reporter, 15 nM NECA agonist challenge. Type of test: cell-based. As to the method:
Adenosine A2a Receptor Functional Assay (A2AGAL2)
To initiate the functional assay, cryopreserved CHO—K1 cells overexpressing the human adenosine A2a receptor and containing a cAMP inducible beta-galactosidase reporter gene were thawed, centrifuged, DMSO containing media removed, and then seeded with fresh culture media into clear 384-well tissue culture treated plates (BD #353961) at a concentration of 10K cells/well. Prior to assay, these plates were cultured for two days at 37° C., 5% CO2, 90% Rh. On the day of the functional assay, culture media was removed and replaced with 45 uL assay medium (Hams/F-12 Modified (Mediatech #10-080CV) supplemented w/0.1% BSA). Test compounds were diluted and 11 point curves created at a 1000× concentration in 100% DMSO. Immediately after addition of assay media to the cell plates, 50 nL of the appropriate test compound antagonist or agonist control curves were added to cell plates using a Cartesian Hummingbird. Compound curves were allowed to incubate at room temperature on cell plates for approximately 15 minutes before addition of a 15 nM NECA (Sigma E2387) agonist challenge (5 uL volume). A control curve of NECA, a DMSO/Media control, and a single dose of Forskolin (Sigma F3917) were also included on each plate. After additions, cell plates were allowed to incubate at 37° C., 5% CO2, 90% Rh for 5.5-6 hours. After incubation, media was removed, and cell plates were washed 1× 50 uL with DPBS w/o Ca & Mg (Mediatech 21-031-CV). Into dry wells, 20 uL of 1× Reporter Lysis Buffer (Promega E3971 (diluted in dH2O from 5× stock)) was added to each well and plates frozen at −20° C. overnight. For β-galactosidase enzyme calorimetric assay, plates were thawed out at room temperature and 20 μL 2× assay buffer (Promega) was added to each well. Color was allowed to develop at 37° C., 5% CO2, 90% Rh for 1-1.5 h or until reasonable signal appeared. The calorimetric reaction was stopped with the addition of 60 μL/well 1M sodium carbonate. Plates were counted at 405 nm on a SpectraMax Microplate Reader (Molecular Devices). Data was analyzed in Microsoft Excel and IC/EC50 curves were fit using a standardized macro.

Test [2] deals with T2, human adenosine A1 receptor (Homo sapiens, UniProt P30542).
T2 construct: expressed in transfected cells; host or cells: CHO-K1 cells with cAMP inducible beta-galactosidase reporter gene
T2 sequence (P30542 1-326): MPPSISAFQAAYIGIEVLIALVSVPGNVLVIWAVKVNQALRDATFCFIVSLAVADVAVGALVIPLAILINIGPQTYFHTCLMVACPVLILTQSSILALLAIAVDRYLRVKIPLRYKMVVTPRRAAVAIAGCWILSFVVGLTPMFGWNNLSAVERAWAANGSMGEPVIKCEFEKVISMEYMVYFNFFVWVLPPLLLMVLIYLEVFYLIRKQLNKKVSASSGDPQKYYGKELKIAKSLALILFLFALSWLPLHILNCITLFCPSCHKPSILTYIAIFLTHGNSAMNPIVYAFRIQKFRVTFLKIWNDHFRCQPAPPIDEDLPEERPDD
The test can be described thus: Adenosine A1 Receptor Functional Assay (A1GAL2). Type of test: cell-based. To be noted: CHO-K1 cells overexpressing human A1 receptor, cAMP inducible beta-galactosidase reporter, 4 nM r-PIA/1 uM Forskolin agonist challenge. As to the method:
Adenosine A1 Receptor Functional Assay (A1GAL2)
To initiate the functional assay, cryopreserved CHO—K1 cells overexpressing the human adenosine A1 receptor and containing a cAMP inducible beta-galactosidase reporter gene were thawed, centrifuged, DMSO containing media removed, and then seeded with fresh culture media into clear 384-well tissue culture treated plates (BD #353961) at a concentration of 10K cells/well. Prior to assay, these plates were cultured for two days at 37° C., 5% CO2, 90% Rh. On the day of the functional assay, culture media was removed and replaced with 45 uL assay medium (Hams/F-12 Modified (Mediatech #10-080CV) supplemented w/0.1% BSA). Test compounds were diluted and 11 point curves created at a 1000× concentration in 100% DMSO. Immediately after addition of assay media to the cell plates, 50 nL of the appropriate test compound antagonist or agonist control curves were added to cell plates using a Cartesian Hummingbird. Compound curves were allowed to incubate at room temperature on cell plates for approximately 15 minutes before addition of a 4 nM r-PIA (Sigma P4532)/1 uM Forskolin (Sigma F3917) agonist challenge (5 uL volume). A control curve of r-PIA in 1 uM Forskolin, a DMSO/Media control, and a single dose of Forskolin were also included on each plate. After additions, cell plates were allowed to incubate at 37° C., 5% CO2, 90% Rh for 5.5-6 hours. After incubation, media was removed, and cell plates were washed lx 5OuL with DPBS w/o Ca & Mg (Mediatech 21-031-CV).
Into dry wells, 20 uL of 1× Reporter Lysis Buffer (Promega E3971 (diluted in dH2O from 5× stock)) was added to each well and plates frozen at −20° C. overnight. For β-galactosidase enzyme calorimetric assay, plates were thawed out at room temperature and 20 μL 2× assay buffer (Promega) was added to each well. Color was allowed to develop at 37° C., 5% CO2, 90% Rh for 1-1.5 h or until reasonable signal appeared. The calorimetric reaction was stopped with the addition of 60 μL/well 1M sodium carbonate. Plates were counted at 405 nm on a SpectraMax Microplate Reader (Molecular Devices). Data was analyzed in Microsoft Excel and IC/EC50 curves were fit using a standardized macro.

Test [3] concerns the target T3, human A2a adenosine receptor (Homo sapiens, UniProt P29274).
T3 construct: purchased PerkinElmer RB-HA2a; host or cells: HEK293 cells (plasma membrane preparation)
Put plainly: Ligand Binding Assay for Adenosine A2a Receptor (A2A-B). To be noted: plasma membrane of HEK293 cells containing human A2a receptor, radioligand [3H]CGS21680. As to the method: Ligand Binding Assay for Adenosine A2a Receptor
Ligand binding assay of adenosine A2a receptor was performed using plasma membrane of HEK293 cells containing human A2a adenosine receptor (PerkinElmer, RB-HA2a) and radioligand [^3H]CGS21680 (PerkinElmer, NET1021). Assay was set up in 96-well polypropylene plate in total volume of 200 μL by sequentially adding 20 μL1:20 diluted membrane, 130 μL assay buffer (50 mM Tris•HCl, pH7.4 10 mM MgCl2, 1 mM EDTA) containing [^3H] CGS21680, 50 μL diluted compound (4×) or vehicle control in assay buffer. Nonspecific binding was determined by […] NECA. Reaction was carried out at room temperature for 2 hours before filtering through 96-well GF/C filter plate pre-soaked in 50 mM Tris•HCl, pH7.4 containing 0.3% polyethylenimine. Plates were then washed 5 times with cold 50 mM Tris•HCl, pH7.4, dried and sealed at the bottom. Microscintillation fluid 30 μL was added to each well and the top sealed. Plates were counted on Packard Topcount for [^3H]. Data was analyzed in Microsoft Excel and GraphPad Prism programs. (Varani, K.; Gessi, S.; Dalpiaz, A.; Borea, P. A. British Journal of Pharmacology, 1996, 117, 1693)

Where a name gives a salt, the structure may show the parent alone.

T3 sequence (P29274 whole entry): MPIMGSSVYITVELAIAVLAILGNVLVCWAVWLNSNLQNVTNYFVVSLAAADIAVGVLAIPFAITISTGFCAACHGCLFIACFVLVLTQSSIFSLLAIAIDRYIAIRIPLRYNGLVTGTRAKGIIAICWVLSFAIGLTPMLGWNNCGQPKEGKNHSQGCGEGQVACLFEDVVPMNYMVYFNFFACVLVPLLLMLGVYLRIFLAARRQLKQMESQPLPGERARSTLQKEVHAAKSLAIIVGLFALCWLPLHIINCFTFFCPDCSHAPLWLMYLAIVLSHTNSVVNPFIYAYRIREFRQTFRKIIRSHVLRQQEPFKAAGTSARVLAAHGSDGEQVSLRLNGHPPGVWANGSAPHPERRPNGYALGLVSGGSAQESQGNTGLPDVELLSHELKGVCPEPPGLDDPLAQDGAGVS
T1 sequence (P29274 whole entry): as above

With `CC(c1ccccc1)c1cc2c(N)nc(-c3cccc(C#N)c3)nc2s1` (racemic) [Example 10, (±)-3-[4-Amino-6-(1-phenyl-ethyl)-thieno[2,3-d]pyrimidin-2-yl]-benzonitrile], the values for the Ki in test [1] and in test [2] were 340 nM and 1770 nM, respectively.
With `N#Cc1cccc(-c2nc(N)c3cc(Cc4ccccc4)sc3n2)c1` [Example 1, 3-(4-Amino-6-benzyl-thieno[2,3-d]pyrimidin-2-yl)-benzonitrile], the Ki (usually a dissociation constant, usually derived from enzyme kinetics or from competition with a known ligand) worked out at 10.6 nM in test [1], 16.8 nM in test [3] and 205 nM in test [2].
In the case of `N#Cc1cccc(-c2nc(N)c3cc(CCc4ccccc4)sc3n2)c1` [Example 2, 3-(4-Amino-6-phenethyl-thieno[2,3-d]pyrimidin-2-yl)-benzonitrile], the Ki is 802 nM in test [1] and 4640 nM in test [2].
The corresponding values for `C=C(c1ccccc1)c1cc2c(N)nc(-c3cccc(C#N)c3)nc2s1` [Example 5, 3-[4-Amino-6-(1-phenyl-vinyl)-thieno[2,3-d]pyrimidin-2-yl]-benzonitrile] are 63.4 nM and over 1040 nM.
Take `N#Cc1cccc(-c2nc(N)c3cc(C4(c5ccccc5)CC4)sc3n2)c1` [Example 6, 3-[4-Amino-6-(1-phenyl-cyclopropyl)-thieno[2,3-d]pyrimidin-2-yl]-benzonitrile]: the Ki in test [1] is 222 nM; in test [2] it was over 610 nM.
For the compound `COc1ccccc1Cc1cc2c(N)nc(-c3cccc(C#N)c3)nc2s1` [Example 9, 3-[4-Amino-6-(2-methoxy-benzyl)-thieno[2,3-d]pyrimidin-2-yl]-benzonitrile], the Ki in test [1] came out at 6.15 nM; in test [3] it was 12.5 nM; in test [2] it was 129 nM.
Take `COc1ccccc1-c1nc(N)c2cc(Cc3ccccc3)sc2n1` [Example 11, 6-Benzyl-2-(2-methoxy-phenyl)-thieno[2,3-d]pyrimidin-4-ylamine]: the Ki in test [1] amounted to 217 nM; in test [2], 374 nM.
As to `Nc1nc(-c2cccc(C(F)(F)F)c2)nc2sc(Cc3ccccc3)cc12` [Example 12, 6-Benzyl-2-(3-trifluoromethyl-phenyl)-thieno[2,3-d]pyrimidin-4-ylamine], the Ki is 1020 nM in test [1] and over 1040 nM in test [2].
As for `COc1cccc(-c2nc(N)c3cc(Cc4ccccc4)sc3n2)c1` [Example 13, 6-Benzyl-2-(3-methoxy-phenyl)-thieno[2,3-d]pyrimidin-4-ylamine hydrochloride], the Ki in test [1] amounted to 118 nM; in test [2], 266 nM.
As for `Nc1nc(-c2cccc(F)c2)nc2sc(Cc3ccccc3)cc12` [Example 14, 6-Benzyl-2-(3-fluoro-phenyl)-thieno[2,3-d]pyrimidin-4-ylamine], the Ki in test [1] amounted to 42.2 nM; in test [2], 123 nM.
For `N#Cc1cccc(-c2nc(N)c3cc(Cc4ccccc4OC(F)(F)F)sc3n2)c1` [Example 15, 3-[4-Amino-6-(2-trifluoromethoxy-benzyl)-thieno[2,3-d]pyrimidin-2-yl]-benzonitrile], the Ki worked out at 39.1 nM in test [1] and 1010 nM in test [2].
Regarding `COc1ccccc1C(=O)c1cc2c(N)nc(-c3cccc(C#N)c3)nc2s1` [Example 17, 3-[4-Amino-6-(2-methoxy-benzoyl)-thieno[2,3-d]pyrimidin-2-yl]-benzonitrile], the Ki in test [1] worked out at 23 nM; in test [2] it was 1040 nM.
On to `COc1ccccc1C(=O)c1cc2c(N)nc(-c3cccc(OC(F)(F)F)c3)nc2s1` [Example 18, [4-Amino-2-(3-trifluoromethoxy-phenyl)-thieno[2,3-d]pyrimidin-6-yl]-(2-methoxy-phenyl)-methanone], for which the figures for the Ki in test [1] and in test [2] were 175 nM and 865 nM, respectively.
Take `COc1ccccc1Cc1cc2c(N)nc(-c3cccc(F)c3)nc2s1` [Example 19, 2-(3-Fluoro-phenyl)-6-(2-methoxy-benzyl)-thieno[2,3-d]pyrimidin-4-ylamine]: the figures for the inhibition constant (Ki) in test [1], in test [3] and in test [2] were 62.4 nM, 39.3 nM and 418 nM, respectively.
Turning to `Nc1nc(-c2cccc(F)c2)nc2sc(Cc3cc(F)cc(F)c3)cc12` [Example 20, 6-(3,5-Difluoro-benzyl)-2-(3-fluoro-phenyl)-thieno[2,3-d]pyrimidin-4-ylamine], the Ki in test [1] was 188 nM; in test [2] it was 564 nM.
Take `COc1ccccc1C(=O)c1cc2c(N)nc(-c3cccc(F)c3)nc2s1` [Example 21, [4-Amino-2-(3-fluoro-phenyl)-thieno[2,3-d]pyrimidin-6-yl]-(2-methoxy-phenyl)-methanone]: the Ki in test [1] turned out to be 80.1 nM; in test [2] it was 162 nM.
